Measured values taken from US8802597B2, “Herbicidal pyrimidines” (E I du Pont de Nemours and Company, priority 2003, dated 2014).
Read-outs that look alike come from different tables or passages of the source.

How the values were obtained:
Assay type in all cases: in vivo
[1] = system: bermudagrass (Cynodon dactylon); assay: Test C pre/postemergence; conditions: Cynodon dactylon; for pest or weed control at 62 g/ha: 62 g ai/ha; for pest or weed control at 125 g/ha: 125 g ai/ha; for pest or weed control at 125 g/ha / pest or weed control at 250 g/ha / pest or weed control at 500 g/ha: scale 0 to 100; for pest or weed control at 250 g/ha: 250 g ai/ha; for pest or weed control at 500 g/ha: 500 g ai/ha
Outline: (§1)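 We sprayed seeded pots preemergence and 2–18 cm seedlings postemergence with test chemicals in a non-phytotoxic solvent mixture including surfactant. Greenhouse plants were visually compared with untreated controls at 12 to 14 days and scored 0 (no effect) to 100 (complete control).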

soybean (Glycine max) = assay: Test C pre/postemergence; conditions: Glycine max; for plant injury at 62 g/ha: 62 g ai/ha; for plant injury at 125 g/ha: 125 g ai/ha; for plant injury at 250 g/ha: 250 g ai/ha; for plant injury at 500 g/ha: 500 g ai/ha
Outline: as §1

[2] = system: giant foxtail (Setaria faberii); assay: Test C pre/postemergence; conditions: Setaria faberi; for pest or weed control at 125 g/ha: 125 g ai/ha; for pest or weed control at 500 g/ha: 500 g ai/ha; for pest or weed control at 62 g/ha: 62 g ai/ha; for pest or weed control at 250 g/ha: 250 g ai/ha
Outline: as §1

[3] = system: johnsongrass (Sorghum halepense); assay: Test C pre/postemergence; conditions: Sorghum halepense; for pest or weed control at 62 g/ha: 62 g ai/ha; for pest or weed control at 125 g/ha: 125 g ai/ha; for pest or weed control at 250 g/ha: 250 g ai/ha; for pest or weed control at 500 g/ha: 500 g ai/ha
Outline: as §1

[4] = system: giant foxtail (Setaria faberi); assay: Test A pre/postemergence; conditions: Setaria faberi, 240 h, read-out: Plant response rating, Foxtail, Giant; for pest or weed control at 500 g/ha: 500 g ai/ha; for pest or weed control at 2000 g/ha: 2000 g ai/ha
Outline: (§2)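 Seeds sown in loam–sand blend received a preemergence directed soil spray of test chemical in non-phytotoxic solvent with surfactant; same-formulation postemergence spray given concurrently to plants 2–10 cm tall at 1- to 2-leaf stage. Greenhouse ~ten days, then visual injury rating versus untreated controls, 0 (no effect) to 100 (complete control).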

[5] = system: redroot pigweed (Amaranthus retroflexus); assay: Test A pre/postemergence; conditions: Amaranthus retroflexus, 240 h, read-out: Plant response rating, Pigweed; for pest or weed control at 500 g/ha: 500 g ai/ha; for pest or weed control at 2000 g/ha: 2000 g ai/ha
Outline: as §2

[6] = system: crabgrass (Digitaria sanguinalis); assay: Test A pre/postemergence; conditions: Digitaria sanguinalis, 240 h, read-out: Plant response rating, Crabgrass; for pest or weed control at 500 g/ha: 500 g ai/ha; for pest or weed control at 2000 g/ha: 2000 g ai/ha
Outline: as §2

[7] = system: barnyardgrass (Echinochloa crus-galli); assay: Test A pre/postemergence; conditions: Echinochloa crus-galli, 240 h, read-out: Plant response rating, Barnyardgrass; for pest or weed control at 500 g/ha: 500 g ai/ha; for pest or weed control at 2000 g/ha: 2000 g ai/ha
Outline: as §2

[8] = system: morningglory (Ipomoea spp.); assay: Test A pre/postemergence; conditions: Ipomoea, 240 h, read-out: Plant response rating, Morningglory; for pest or weed control at 500 g/ha: 500 g ai/ha; for pest or weed control at 2000 g/ha: 2000 g ai/ha
Outline: as §2

[9] = system: velvetleaf (Abutilon theophrasti); assay: Test A pre/postemergence; conditions: Abutilon theophrasti, 240 h, read-out: Plant response rating, Velvetleaf; for pest or weed control at 500 g/ha: 500 g ai/ha; for pest or weed control at 2000 g/ha: 2000 g ai/ha
Outline: as §2

[10] = post-emergence, Postemergence, read-out: Plant response rating, Bermudagrass
[11] = pre-emergence, Preemergence, read-out: Plant response rating, Bermudagrass
[12] = post-emergence, Postemergence, scale 0 to 100 (0 no effect, 100 complete control), read-out: Soybean plant response rating
[13] = post-emergence, Postemergence, scale 0 to 100, read-out: Plant response rating, Soybean
[14] = pre-emergence, Preemergence, scale 0 to 100, read-out: Plant response rating, Soybean
[15] = post-emergence, Postemergence, scale 0 to 100 (0 no effect, 100 complete control), read-out: Foxtail, Giant plant response rating
[16] = post-emergence, Postemergence, scale 0 to 100, read-out: Plant response rating, Foxtail, Giant
[17] = pre-emergence, Preemergence, scale 0 to 100, read-out: Plant response rating, Foxtail, Giant
[18] = post-emergence, Postemergence, scale 0 to 100 (0 no effect, 100 complete control), read-out: Johnsongrass plant response rating
[19] = post-emergence, Postemergence, scale 0 to 100, read-out: Plant response rating, Johnsongrass
[20] = pre-emergence, Preemergence, scale 0 to 100, read-out: Plant response rating, Johnsongrass
[21] = post-emergence, Postemergence, 0 to 100 scale (0 no effect, 100 complete control)
[22] = pre-emergence, Preemergence, 0 to 100 scale where 0 is no effect and 100 is complete control, approximately ten days
[23] = pre-emergence, Preemergence, 0 to 100 scale (0 no effect, 100 complete control)

CCOC(=O)c1nc(C2CC2)nc(N)c1Br [Compound 1, ethyl 6-amino-5-bromo-2-cyclopropyl-4-pyrimidinecarboxylate]
pest or weed control at 62 g/ha ([1]; post-emergence, Postemergence, scale 0 to 100 (0 no effect, 100 complete control), read-out: Bermudagrass plant response rating): 70% | pest or weed control at 125 g/ha [1, 10]: 90% | pest or weed control at 250 g/ha [1, 10]: 90% | pest or weed control at 500 g/ha [1, 10]: 90% | pest or weed control at 62 g/ha ([1]; pre-emergence, Preemergence, scale 0 to 100, 0 no effect, 100 complete control, read-out: Plant response rating, Bermudagrass): 0% | pest or weed control at 125 g/ha [1, 11]: 50% | pest or weed control at 250 g/ha [1, 11]: 70% | pest or weed control at 500 g/ha [1, 11]: 90% | plant injury at 62 g/ha (soybean (Glycine max); [12]): 100% | plant injury at 125 g/ha (soybean (Glycine max); [12]): 100% | plant injury at 250 g/ha (soybean (Glycine max); [13]): 100% | plant injury at 500 g/ha (soybean (Glycine max); [13]): 100% | plant injury at 62 g/ha (soybean (Glycine max); pre-emergence, Preemergence, scale 0 to 100, 0 no effect, 100 complete control, read-out: Plant response rating, Soybean): 85% | plant injury at 125 g/ha (soybean (Glycine max); [14]): 100% | plant injury at 250 g/ha (soybean (Glycine max); [14]): 100% | plant injury at 500 g/ha (soybean (Glycine max); [14]): 100% | pest or weed control at 125 g/ha [2, 15]: 65% | pest or weed control at 500 g/ha [2, 16]: 90% | pest or weed control at 62 g/ha [2, 15]: 40% | pest or weed control at 250 g/ha [2, 16]: 80% | pest or weed control at 62 g/ha ([2]; pre-emergence, Preemergence, scale 0 to 100, 0 no effect, 100 complete control, read-out: Plant response rating, Foxtail, Giant): 0% | pest or weed control at 125 g/ha [2, 17]: 30% | pest or weed control at 250 g/ha [2, 17]: 90% | pest or weed control at 500 g/ha [2, 17]: 90% | pest or weed control at 62 g/ha [3, 18]: 30% | pest or weed control at 125 g/ha [3, 18]: 30% | pest or weed control at 250 g/ha [3, 19]: 70% | pest or weed control at 500 g/ha [3, 19]: 70% | pest or weed control at 62 g/ha ([3]; pre-emergence, Preemergence, scale 0 to 100, 0 no effect, 100 complete control, read-out: Plant response rating, Johnsongrass): 0% | pest or weed control at 125 g/ha [3, 20]: 30% | pest or weed control at 250 g/ha [3, 20]: 80% | pest or weed control at 500 g/ha [3, 20]: 90% | pest or weed control at 500 g/ha [4, 21]: 70% | pest or weed control at 2000 g/ha [4, 21]: 75% | pest or weed control at 500 g/ha [4, 22]: 40% | pest or weed control at 2000 g/ha [4, 23]: 85% | pest or weed control at 500 g/ha [5, 21]: 100% | pest or weed control at 2000 g/ha [5, 21]: 100% | pest or weed control at 500 g/ha [5, 22]: 85% | pest or weed control at 2000 g/ha [5, 23]: 100% | pest or weed control at 500 g/ha [6, 21]: 65% | pest or weed control at 2000 g/ha [6, 21]: 80% | pest or weed control at 500 g/ha [6, 22]: 25% | pest or weed control at 2000 g/ha [6, 23]: 75% | pest or weed control at 500 g/ha [7, 21]: 75% | pest or weed control at 2000 g/ha [7, 21]: 75% | pest or weed control at 500 g/ha [7, 22]: 60% | pest or weed control at 2000 g/ha [7, 23]: 80% | pest or weed control at 500 g/ha [8, 21]: 95% | pest or weed control at 2000 g/ha [8, 21]: 100% | pest or weed control at 500 g/ha [8, 22]: 85% | pest or weed control at 2000 g/ha [8, 23]: 100% | pest or weed control at 500 g/ha [9, 21]: 95% | pest or weed control at 2000 g/ha [9, 21]: 85% | pest or weed control at 500 g/ha [9, 22]: 60% | pest or weed control at 2000 g/ha [9, 23]: 80%
